Like-named read-outs stand apart in the source and are kept apart here. Values belong to the compound of their own block, whether it stands above or below them.
Columns and labels:
[1] = From the text: At pH 4 and 5, 0.1 M citrate buffers were used, while for pH 6, 7 and 8a set of 0.1 M phosphate buffers were used. Each buffer also contained 0.2 M NaCl. No cosolvents or other potentially solubilizing components were included. Buffer preparations were subdivided in order to individually test the solubility of only one material in a given buffer sample.
[2] = Pharmacokinetic evaluation of asenapine and asenapine prodrugs in rats; type: in vivo, Sprague-Dawley rats; conditions: rat, 10 mg/rat IM
Procedure: Animals: 18 Male Sprague-Dawley rats (Charles River Laboratories, Wilmington, Mass.) were used in the study. Three groups of 6 rats were used and are referred to in this study as Groups A, B and C. Rats were approximately 350-375 g at time of arrival. Rats are housed 2 per cage with ad libitum chow and water. Environmental conditions in the housing room: 64-67° F., 30% to 70% relative humidity, and 12:12-h light: dark cycle. All experiments were approved by the institutional animal care and use committee.
Test Compounds: The following formulations of Asenapine parent drug and prodrug compounds of the invention were used in the study.
Pharmacokinetics study: Rats were dosed IM by means of a 23 gauge, 1 in. needle with 1 cc syringe 0.3 mL suspension was withdrawn from the vial containing the test compound. The rat was injected in the muscles of the hind limb after anesthesia with isoflurane. Blood samples were collected via a lateral tail vein after brief anesthesia with Isoflurane. A 271/2 G needle and 1 cc syringe without an anticoagulant was used for the blood collection. Approximately 350 μL of whole blood was collected at each sampling time point of 6 hours, 24 hours and 2, 5, 7, 9, 12, 14, 21, 28, 35 days after administration. Once collected, whole blood was immediately transferred to tubes containing K2 EDTA, inverted 10-15 times and immediately placed on ice. The tubes were centrifuged for 2 minutes at >14,000 g′ s (11500 RPMs using Eppendorf Centrifuge 5417C, F45-30-11 rotor) at room temperature to separate plasma. Plasma samples were transferred to labeled plain tubes (MICROTAINER®; MFG# BD5962) and stored frozen at <−70° C.
Drug concentrations in plasma samples were analyzed by liquid chromatography-mass spectroscopy using appropriate parameters for each compound. Half-life, volume of distribution, clearance, maximal concentration, and AUC were calculated by using WinNonlin version 5.2 software (Pharsight, St. Louis, Mo.).

[3] = Solution stability of asenapine prodrugs as a function of pH; type: physicochemical; conditions: 0.01M buffers pH 2.11-9.01 with acetonitrile, 25° C., HPLC at 1, 4, 10, 24 hours; compared with asenapine octanoate (FIGS. 1 and 2)
Procedure: The asenapine derived prodrugs were prepared at approximately 300 ug/mL in buffers with acetonitrile (see table of buffers below). The initial ratio of prodrug/parent was measured using a freshly prepared solution in unbuffered water. Acetonitrile was titrated into all samples as needed to ensure the complete dissolution of the compounds. The amount of acetonitrile varied depending on the solubility of each compound (see Note 1). 1.5 mL of each stability sample was transferred into a HPLC vial and the vials were maintained at 25° C. in the temperature controlled sample compartment of the HPLC. Each sample was assayed by HPLC after 1, 4, 10, and 24 hours for prodrug and asenapine content (see Note 2).
The fraction of prodrug remaining at each time point was calculated as Fraction Prodrug=(HPLC Area of Prodrug)/(HPLC area of prodrug+asenapine)(see Note 3). The loss of prodrug was then fit to the equation for first order decay: Fraction Prodrug=(Initial Fraction prodrug)*e^−kt where t=time (in hours) and k is the rate constant for decay. Finally, the half-lives were calculated as: t1/2=0.693/k
Note 1: The acetonitrile concentration is not expected to have a large impact on the degradation rate since the rate follows first order decay with respect to compound (ie, the rate constant is independent of the concentration). […]

decrease in plasma concentration over all the time points sampled ([2]; 6 hours to 35 days, compared with Asenapine or Asenapine palmitate prodrug): more gradual decrease
duration of asenapine pharmacokinetics in the animals ([2]; compared with Asenapine or Asenapine palmitate prodrug): longer duration
SMILES: CCC(C)(C)C(=O)OC[N+]1(C)CC2c3ccccc3Oc3ccc(Cl)cc3C2C1.[I-] (stereo not drawn) [Asenapine dimethyl butyrate prodrug, asenapine (α,α)-dimethyl butyrate iodide]

variation in solubility across the pH range studied [1]: less than 2 fold
SMILES: CCCCCCCCCCCCC(C)(C)C(=O)OC[N+]1(C)CCN(C2=Nc3ccccc3Nc3sc(C)cc32)CC1.[I-] [Compound 18, 1-(((2,2-dimethyltetradecanoyl)oxy)methyl)-1-methyl-4-(2-methyl-10H-benzo[b]thieno[2,3-e][1,4]diazepin-4-yl)piperazin-1-ium iodide]

Solution stability as a function of pH [3]: more stable
SMILES: CC(C)(C)C(=O)OC[N+]1(C)CC2c3ccccc3Oc3ccc(Cl)cc3C2C1.[Cl-] (stereo not drawn) [asenapine pivalate, asenapine pivalate prodrug]

Continued, compound first:

SMILES: Cc1cc2c(s1)Nc1ccccc1N=C2N1CCN(C)CC1.O.O=C(O)c1cc2ccccc2c(Cc2c(O)c(C(=O)O)cc3ccccc23)c1O [olanzapine pamoate salt, olanzapine pamoate, reference compound]
variation in solubility across the pH range studied ([1]; room temperature, 0.1 M citrate (pH 4, 5) or phosphate (pH 6, 7, 8) buffers with 0.2 M NaCl, pH range 4-9 (FIG. 4)): > 10 fold

SMILES: CCC(C)(C)C(=O)OC[N+]1(C)CC2c3ccccc3Oc3ccc(Cl)cc3C2C1.[I-] (stereo not drawn) [ASN-83, 5-chloro-2-(((2,2-dimethylbutanoyl)oxy)methyl)-2-methyl-2,3,3a,12b-tetrahydro-1H-dibenzo[2,3:6,7]oxepino[4,5-c]pyrrol-2-ium iodide]
Cmax of the Asenapine released ([2]; plasma, compared with parent Asenapine formulation and Asenapine palmitate prodrug (FIG. 3)): lower

Source: patent US9670200B2, “Quaternary ammonium salt prodrugs” (Alkermes Pharma Ireland Limited, priority 2010, dated 2017)
